Patent publication US11078196B2, “Heteroaryl amides as inhibitors of protein aggregation” (UCB Biopharma SRL, priority 2014, dated 2021)
Like-named read-outs stand apart in the source and are kept apart here.

Columns and labels:
Stability in SGF = format: in vitro ADME
Plasma stability = format: in vitro ADME
[1] = In vivo pharmacokinetics and brain distribution, single i.v. or p.o. dose; parameters: species or system male C57BL/6 mice; conditions: mice; for clearance / bioavailability: male, C57BL/6, mouse, plasma; for clearance: read-out: PK Clearance; for bioavailability: po, read-out: Oral Bioavailablility
Experimental: The pharmacokinetics and brain distribution of the compounds described herein was determined in male C57BL/6 mice following single intravenous or oral dose administration. A group of 54 male mice were divided into two groups of 27 mice. […] Blood samples were collected pre-dose and at 0.08, 0.25, 0.5, 1, 2, 4, 8, and 24 h post-dose (i.v.), and pre-dose, and at 0.25, 0.5, 1, 2, 4, 6, 8 and 24 h post-dose (p.o.). Blood was collected from sets of three mice at each time point in labeled microcentrifuge tubes containing K2EDTA as anticoagulant. Plasma samples were separated by centrifugation of whole blood and stored below −70° C. until bioanalysis. After collecting blood samples, mice were humanely euthanized by CO2 asphyxiation and brain was collected at the same time points. Following collection, the brain samples were washed in ice-cold phosphate buffer saline (pH 7.4), gently dried on filter paper, weighed and placed in polypropylene tubes. Further brain samples were homogenized using phosphate buffer saline pH 7.4 and the total homogenate volume was thrice the brain weight. The samples were then stored below −70° C. until bioanalysis. All samples were processed for analysis by protein precipitation using acetonitrile and analyzed with fit-for-purpose LC/MS/MS method (LLOQ: 1.01 ng/mL for plasma and brain). Pharmacokinetic parameters were calculated using the non-compartmental analysis tool of Phoenix WinNonlin (Version 6.3).

[2] = system: Line 61 ASYN transgenic mouse; assay: Round Beam Task, sensorimotor impairment; format: in vivo; conditions: for number of slips, Round Beam Task: Example 6A, three months, vs. vehicle-treated transgenic mice; for number of slips, Round Beam Motor Performance assay: Example 6B
Description: The Round Beam Task was used to assess sensorimotor impairments, using number of slips as the primary outcome measure (FIG. 4).

[3] = system: transgenic ASYN protein in Line 61 ASYN transgenic mouse; assay: Western Blot analysis of cerebral cortical and hippocampal brain homogenates; format: in vivo
Experimental: (§1) Example 1 was evaluated in a transgenic mouse model of PD overexpressing human wild-type ASYN under the Thy-1 promoter (also referred to as the Line 61 ASYN transgenic mouse), by administering Example […] 0, 1, or 5 mg/kg (i.p.) once daily (five days per week) for three months and then assessing PD-relevant sensorimotor performance, biochemical alterations, and neuropathological changes in ASYN and related proteins.
(§2) Biochemical evaluations of oligomeric proteins using A11 antibody dot blot methods (including ASYN) in cortical homogenates were performed.

[4] = system: oligomers in Line 61 ASYN transgenic mouse; assay: A11 antibody dot blot of oligomeric proteins in cortical homogenates; format: in vivo; conditions: 5 mg/kg; p<0.001 vs. vehicle-treated ASYN transgenic mice
Experimental: as §1, §2

[5] = system: ASYN in Line 61 ASYN transgenic mouse; assay: ASYN immunolabeling in cortical neuropil and neuronal cell bodies; format: in vivo; conditions: for alpha-synuclein immunolabeling in cortical neuropil: p<0.0001 vs. vehicle-treated ASYN transgenic mice
Experimental: These neuropathological findings were reconfirmed in the current study using the methods described by Masliah and colleagues. Example 1 administration (1 and 5 mg/kg dosing) produced statistically significant decreases in ASYN levels as determined by effects on ASYN immunolabeling (FIGS. 6 and 7). There was a statistically significant increase in ASYN immunolabeling with the Millipore anti-alpha-synuclein antibody in the cortical neuropil (****p<0.0001) (FIG. 6A) and in neuronal cell bodies of ASYN transgenic mice (**p<0.01) (FIG. 6B) relative to non-transgenic/vehicle controls.

[6] = system: Line 61 ASYN transgenic mice; assay: Fecal boli counts in a novel environment; format: in vivo, mouse
Experimental: An earlier published study included a report that Line 61 ASYN transgenic mice have decreased colonic motility, fecal output, and weight (Wang, L. et al. Neurogastroenterol. Motil. 2012, 24(9), e425-436). For the present study, an assessment of fecal boli counts was conducted in conjunction with a spontaneous locomotor activity test session. At the conclusion of a five-minute test session, the experimenter counted the number of fecal boli present in the test chamber, and the results are presented in FIG. 9.

[7] = system: cardiac ASYN in Line 61 ASYN transgenic mice; assay: Post-mortem Western blot of cardiac ASYN; format: in vivo, mouse; conditions: p<0.0001 vs. vehicle-treated ASYN transgenic mice
Description: Like bowel dysfunction, alterations in cardiac biochemistry and function may precede Parkinson's disease diagnosis by 20 years or more. Well-characterized functional alterations in PD patients include altered heart rate variability and orthostatic hypotension (Kaufmann, H. et al., Handbook Clin. Neurol. 2013, 117, 259-278; Jain, S. et al., Neurobiol. Dis. 2012, 46(3), 572-580; Senard, J. M. et al., Rev. Neurol. (Paris) 2010, 166(10), 779-784; Post, K. K. et al., Parkinsonism Relat. Disord. 2008, 14(7), 524-531). These functional changes are accompanied by pathological findings of loss of myocardial noradrenergic innervation and the presence of ASYN aggregates in cardiac autonomic nerves (Jellinger, K. A., J. Neurol. Sci. 2011, 310 (1-2), 107-111). […] For the present study, post-mortem Western blot evaluations of cardiac ASYN by Western blot analysis were performed to confirm the presence in ASYN transgenic cardiac tissue and to evaluate the effects of Example 1 on transgenic cardiac levels of ASYN (FIG. 10). There was a statistically significant increase in detected cardiac levels of ASYN in vehicle-treated ASYN transgenic mice relative to vehicle-treated non-transgenic control mice (***p<0.001).

PDNG78 transgenic mice = assay: Longitudinal retinal imaging of ASYN-GFP; format: in vivo, mouse; conditions: 5 mg/kg i.p., after approximately 60 days through 90 days
Experimental: A total of four imaging sessions were conducted, including a baseline prior to starting treatments and three subsequent imaging sessions at approximately one-month intervals.

Row | Structure (SMILES) | Stability in SGF (Stability in SGF) | B:P ratio (PO) ([1]; at 10 mg/kg) | bioavailability ([1]; at 10 mg/kg) [%] | B:P ratio (IV) ([1]; at 10 mg/kg) | Plasma Stability (Plasma stability; @ 120 min) [% @] | clearance ([1]; iv, at 10 mg/kg) [mL/min/kg] | also measured
1 | CCCCNC(=O)C(Cc1c[nH]c2ccccc12)NC(=O)c1cnc(N2CCNCC2)s1 (centres unmarked) [Comp. A, reference compound] | stable | 0.05 |  |  |  |  | Plasma Stability (Plasma stability; @ 60 min): 35% @; clearance ([1]; intravenous, at 10 mg/kg): 71 mL/min/kg
2 | CCCNC(=O)NC(Cc1c[nH]c2ccccc12)NC(=O)c1cnc(N2CCN(C)CC2)s1 (centres unmarked) [Comp. B, reference compound] | unstable | 0.08 | 14 | 0.1 |  |  | Plasma Stability (Plasma stability; @ 60 min): 89% @; clearance ([1]; intravenous, at 10 mg/kg): 258 mL/min/kg
3 | CCCCC(Cc1c[nH]c2ccccc12)NC(=O)c1cnc(N2CCN(C)CC2)s1 (centres unmarked) [Example 1, N-(1-(1H-Indol-3-yl)hexan-2-yl)-2-(4-methylpiperazin-1-yl)thiazole-5-carboxamide] | stable | 0.4 | 53 | 2.0 | 100 | 81 | number of slips, Round Beam Task ([2]; 1 mg/kg i.p. once daily): statistically significantly reductions in slips; number of slips, Round Beam Task ([2]; 5 mg/kg i.p. once daily): statistically significantly reductions in slips; number of slips, Round Beam Motor Performance assay ([2]; 0.5 mg/kg): non-statistically significant decrease in slips; number of slips, Round Beam Motor Performance assay ([2]; 1 mg/kg, p<0.01 vs. vehicle-treated ASYN transgenic mice): statistically significant improvement (decreased slips); transgenic ASYN protein levels [3]: statistically significant reductions; oligomers (A11 immunostaining) in cytosolic fraction of frontal cortex [4]: statistically significant decrease in oligomers; alpha-synuclein immunolabeling in cortical neuropil ([5]; 1 mg/kg): statistically significant decreases in alpha-synuclein immunolabeling; number of ASYN immunolabeled neuron cell bodies ([5]; 5 mg/kg): non-statistically significant decrease; alpha-synuclein immunolabeling in cortical neuropil ([5]; 5 mg/kg): statistically significant decreases in alpha-synuclein immunolabeling; number of fecal boli produced ([6]; ASYN transgenic mice, 0.5 mg/kg, p<0.05 vs. vehicle): restored function; number of fecal boli produced ([6]; ASYN transgenic mice, 1 mg/kg, p<0.001 vs. vehicle): restored function; number of fecal boli produced ([6]; non-transgenic mice): no effect; cardiac levels of ASYN ([7]; 0.5 mg/kg): statistically significant normalizations of ASYN levels; cardiac levels of ASYN ([7]; 1 mg/kg): statistically significant normalizations of ASYN levels; percentage of ASYN-GFP positive area in retinal images (PDNG78 transgenic mice; p<0.001 vs. vehicle): decreased; number of ASYN-GFP positive particles in retinae (PDNG78 transgenic mice; p<0.01 vs. vehicle): decreased
4 | CN1CCN(CCc2ncc(C(=O)NCCc3c[nH]c4ccccc34)s2)CC1 [Example 4, N-(2-(1H-Indol-3-yl)ethyl)-2-(2-(4-methylpiperazin-1-yl)ethyl)thiazole-5-carboxamide] | stable | 0.1 | 100 | 0.4 | 25 | 95 | 
5 | CCCCC(Cc1c[nH]c2ccccc12)NC(=O)c1cnc(CCN2CCN(C)CC2)s1 (centres unmarked) [Example 5, N-(1-(1H-Indol-3-yl)hexan-2-yl)-2-(2-(4-methylpiperazin-1-yl)ethyl)thiazole-5-carboxamide] | stable | 0.05 | 79 | 0.18 | 100 | 24 | 
6 | CCCCC(Cc1c[nH]c2ccc(F)cc12)NC(=O)c1cnc(CCN2CCOCC2)s1 (centres unmarked) [Example 10, N-(1-(5-Fluoro-1H-indol-3-yl)hexan-2-yl)-2-(2-morpholinoethyl)thiazole-5-carboxamide] |  | 0.15 | 13 |  |  |  | clearance ([1]; intravenous, at 2 mg/kg): 75 mL/min/kg; B:P ratio (IV) ([1]; at 2 mg/kg): 0.8
7 | CCCC[C@@H](Cc1c[nH]c2ccccc12)NC(=O)c1cnc(N2CCN(C)CC2)s1 [Example 27, (S)-N-(1-(1H-Indol-3-yl)hexan-2-yl)-2-(4-methylpiperazin-1-yl)thiazole-5-carboxamide] |  | 0.3 | 57 | 1.4 |  | 37 | 
8 | CCCC[C@H](Cc1c[nH]c2ccccc12)NC(=O)c1cnc(N2CCN(C)CC2)s1 [Example 28, (R)-N-(1-(1H-Indol-3-yl)hexan-2-yl)-2-(4-methylpiperazin-1-yl)thiazole-5-carboxamide] |  | 0.4 | 14 | 2.1 |  | 69 | 
